The text below walks through data of USRE50096E1, “Nanoemulsion compositions of taxoid drugs, and methods for the use thereof to target cancer cells and cancer stem cells” (TargaGenix, Inc., priority 2016, dated 2024).

Where two headings read alike, the source gives them in different places.

One data set relates to CD133+ PPT2 cells. The experiment in a line: Stemness gene expression in PPT2 cells (PCR array, Western blot). The data set is classed as cell-based, human. How it is done:
Experiments were carried out with a patient-derived cancer stem cell line for prostate cancer, PPT2 (Botchkina 2013, Rowehl 2014). The cell line PPT2 was generated from a patient-derived prostate cancer tumor. […] The PPT2 cell line was serially propagated as NOD/SCID mice tumor xenografts, floating 3D spheroids and type I collagen-adherent cultures. According to the ATCC report (ID number 002872), the PPT2 cells were unique human cells not contaminated with any known established cell lines. Although phenotype of the CSC-enriched cultures was dynamic due to the dual nature of the CSCs (i.e., ability to self-renew and to generate committed progenitors), the PPT2 cells retained a relatively stable phenotype, even up to 8 weeks after MACS-CD133^+ cell sorting and culturing on type I collagen coated surfaces in serum-free medium. […] Both nuclear and cytoplasmic fractions of the PPT2 cells expressed c-Myc, whereas other pluripotency markers (Oct-4 and Sox-2) were detected only in nuclear fraction. […]
To characterize possible drug induced alterations in stemness gene expression, CD133^+ PPT2 cells were analyzed before and after treatment with a combination of SBT-1214 and CMC 2.24, a chemically-modified curcumin. […]
Background: In western blotting, separated proteins are transferred to a membrane and probed.

A further data set concerns HCT116 spheroids. The experiment in a line: Colon cancer stem cell 3D spheroids, HCT116. Type of data set: cell-based, human. How it is done:
(§1) In another example, stem-cell enriched populations of colon cancer cells were selected from three invasive colon cancer cell lines, HCT116, HT29, and DLD-1. The populations were grown as 3D multicellular spheroids.
HCT116: SOX1, RPL13A, BMP1, BMP3, NEUROG2, GJB1, GJA1, ASCL2, CTNNA1, GDF2, ALPI, S100B, CD8B1, ACTB, CCND1, FGF1, PARD6A, DVL1, GDF3, ISL1, CD3D, MME, FGFR1, RB1, AIN1, ALDH1A1, CD8A, PPARD, FZD1, NUMB and ABCG2;

In another data set the test system is HT29 spheroids. Description: Colon cancer stem cell 3D spheroids, HT29. Type of data set: cell-based, human. How it is done:
as §1
HT29: ACAN, ALPI, BMP3, CD3D, CD4, CD8A, CD8B, CDH2, COL2A1, COL9A1, DHH, DLL1, DLL3, DTX1, FGF1, FGF3, FZD1, GDF2, IGF1, MME, MYOD, NCAM1, NEUROG2, S100B, SOX2, and TERT;

The next data set concerns DLD-1 spheroids. The experiment in a line: Colon cancer stem cell 3D spheroids, DLD-1. Type of data set: cell-based, human. How it is done: as §1
DLD-1: CD4, CDH2, COL1A1, DLL1, DTX1, IGF1, FGF3, FZD1, JAG1, KRT15, MSX1, NCAM1 and NOTCH1 (Botchkina, et al., 2010).

The test system of data set [1] is drug resistant cancer cells, expressing MDR phenotypes. To be noted: cited from earlier work.
Data set [2] relates to drug resistant (Pgp+) colon tumor xenografts. To be noted: mouse, in vivo; cited from earlier work.
The test system of the next data set is tubulin. Conditions: cited from earlier work.
Data set [3] deals with H460 human non-small cell lung tumor xenograft. The experiment in a line: H460 non-small cell lung tumor xenograft in SCID mice. To be noted: for tumor growth delay: at (about) MTD.
Data set [4] relates to human CFPAC-1 ductal pancreatic adenocarcinoma xenograft. Description: CFPAC-1 pancreatic adenocarcinoma xenograft in SCID mice. Conditions: for tumor growth delay as compared to vehicles: mouse, in vivo.
The subject of data set [5] is human PANC-1 pancreatic tumor xenograft. The experiment in a line: PANC-1 pancreatic tumor xenograft in SCID mice. The data set is classed as in vivo, RPCI SCID mice. To be noted: for complete remissions: mouse, in vivo. From the text:
This experiment compared a q7dx3 with a q3dx3 schedule for PX and DHA-SBT-1214 using a human PANC-1 pancreatic tumor xenograft in RPCI SCID mice.

Data set [6] concerns paclitaxel-resistant, Pgp(+) DLD1 human colon tumor xenograft. The experiment in a line: DLD1 human colon tumor xenograft in SCID mice. On the technique in general: In xenograft studies the graft and the host belong to different species.
For data set [7], the system named is H460 human non-small cell lung tumor xenograft. Conditions: mouse, in vivo.
[8] abbreviates: 80 mg/kg dose on days 5, 8, and 11.

For `CC(=O)O[C@@]12CO[C@@H]1C[C@H](O)[C@@]1(C)C(=O)[C@H](OC(=O)C3CC3)C3=C(C)[C@@H](OC(=O)[C@H](O)[C@H](C=C(C)C)NC(=O)OC(C)(C)C)C[C@@](O)([C@@H](OC(=O)c4ccccc4)[C@H]21)C3(C)C` [SBT-1214], the “expression of p21 and p53” value in the data set on CD133+ PPT2 cells was “induced expression”. For the same molecule, the “c-Myc and Sox2 in nuclear extracts (Western blot)” value with CD133+ PPT2 cells (CD133+ and bulk PPT2 cells) is reported as “moderate down-regulation”. In addition, the “growth of the secondary spheroids” value in the data set on HCT116 spheroids (100 nM for 48 h), in the data set with HT29 spheroids (100 nM for 48 h) and in the data set on DLD-1 spheroids (100 nM for 48 h) was “marked suppression” throughout. In addition, the cytotoxicity in spheroids result with HCT116 spheroids (3D multicellular spheroids), in the data set with HT29 spheroids (3D multicellular spheroids) and with DLD-1 spheroids (3D multicellular spheroids) was “effectively induced cytotoxicity” each time. Besides, the stemness-associated genes entry with HCT116 spheroids (gene list), with HT29 spheroids (gene list) and in the data set on DLD-1 spheroids (gene list) was “downregulated” each time. The “potency relative to paclitaxel” value in [1] is 2-3 orders of magnitude. The “long-term regression and tumor growth delay” value in data set [2] is given as 167 days. For the same molecule, the tumor growth delay in data set [2] is listed as more than 187 days; in [3], 34 days. Moreover, in data set [2], the tumor regression result was “complete regression in all surviving mice”. For the same molecule, the “time to polymerize tubulin” value in the data set with tubulin is reported as “a matter of minutes”. The molecule further came in with an MTD in [3] (mouse, in vivo) of approximately 120 mg/kg total dose. In addition, in data set [4] (until day 20, 120 mg/kg total dose), the weight loss is listed as less than 4%.

For `CC/C=C\C/C=C\C/C=C\C/C=C\C/C=C\C/C=C\CCC(=O)O[C@@H](C(=O)O[C@H]1C[C@@]2(O)[C@@H](OC(=O)c3ccccc3)[C@@H]3[C@]4(OC(C)=O)CO[C@@H]4C[C@H](O)[C@@]3(C)C(=O)[C@H](OC(=O)C3CC3)C(=C1C)C2(C)C)[C@H](C=C(C)C)NC(=O)OC(C)(C)C` [DHA-SBT-1214], the “maximum tolerated dose (MTD)” value in data set [5] (80 mg/kg x 3 inj) is listed as 240 mg/kg total dosage. In addition, the toxic death entry in [5] (300 mg/kg total dose) is listed as “one toxic death”. Moreover, the tumor growth delay in data set [5] (both schedules, q7dx3 and q3dx3) is more than 90 days; in [6] (setting [8]) it was more than 187 days; in data set [3], 55 days. For the same molecule, the complete remissions result in data set [5] is “achieved complete remissions”. Further, in [6] (setting [8]), the “complete regression of the DLD-1 tumor” value is reported as 5 of 5. In data set [3] (mouse, in vivo), this molecule yielded an MTD of approximately 240 mg/kg total dose. For the same molecule, in data set [3] (mouse, in vivo), the tolerability entry was “clearly better tolerated than SBT-1214”. Moreover, the weight loss entry in [4] (240 mg/kg or 300 mg/kg total dose) is reported as “negligible”.

With `CC(=O)O[C@H]1C(=O)[C@@]2(C)[C@H]([C@H](OC(=O)c3ccccc3)[C@]3(O)C[C@H](OC(=O)[C@H](O)[C@@H](NC(=O)c4ccccc4)c4ccccc4)C(C)=C1C3(C)C)[C@]1(OC(C)=O)CO[C@@H]1C[C@@H]2O` [paclitaxel, reference compound], in data set [5], the complete remissions entry is given as “no complete remissions”. The tumor growth delay in data set [5] (q3dx3 schedule) was 13 days; in data set [5] (q7dx3 schedule), 18 days; in data set [3] it was 8 days. Further, the “time to polymerize tubulin” value in the data set on tubulin is “hours”. For the same molecule, the “efficacy against tumor xenograft” value in data set [6] (s.c. xenograft) is “totally ineffective”. In addition, the MTD in [3] (mouse, in vivo) came out at 75 mg/kg total dose. Further, in data set [4], the “tumor growth delay as compared to vehicles” value is “only minor tumor growth delay”.

Consider `CC/C=C\C/C=C\C/C=C\C/C=C\C/C=C\C/C=C/CCC(=O)O[C@@H](C(=O)O[C@H]1C[C@@]2(O)[C@@H](OC(=O)c3ccccc3)C3[C@](C)(C(=O)[C@H](OC(C)=O)C(=C1C)C2(C)C)[C@@H](O)C[C@H]1OC[C@@]31OC(C)=O)[C@@H](NC(=O)c1ccccc1)c1ccccc1` (stereo partly shown) [DHA-paclitaxel, reference compound], for which the MTD in [7] is 240 mg/kg total dose. In data set [3], this molecule showed a tumor growth delay of 3 days. The “tumor growth delay as compared to vehicles” value in data set [4] is “only minor tumor growth delay”.
